Experimental data taken from patent publication US4737494A, “1,3-dithiole derivatives and pharmaceutical compositions” (priority 1984, dated 1988).

Legend:
Format in all cases: in vivo, mice (ddY, male)
[1] = test system: acute liver injury induced by carbon tetrachloride; experiment: Protective effect on acute liver injury induced by carbon tetrachloride (mice, oral): plasma GPT activity and BSP retention; conditions: 6 h before CCl4 (0.05 ml/kg p.o.); for GPT activity: plasma; for Retained BSP: plasma 30 min after BSP 75 mg/kg i.v.
Method: 1. Protective Effect on Acute Liver Injury Induced by Carbon Tetrachloride
A test compound was dissolved or suspended in olive oil and administered orally to mice (ddY mice, .male., 23±2 g, n=5). After 6 hours, carbon tetrachloride (0.05 ml/kg) was administered orally. 24 Hours after the administration of carbon tetrachloride, BSP (sodium sulfobromophthalein; 75 mg/kg) was administered intravenously. Thirty minutes later, the cardiac blood was collected, and GPT (glutamic-pyruvic transaminase) activity and the retention rate of BSP in the plasma were measured.

mice = experiment: Acute toxicity test (oral, mortality 1 week after administration)
Method: (§1) A test compound was suspended in olive oil and administered orally to mice (ddY mice,.male., 23±2 g, n=5 or 6). The actute toxicity value (LD50) was determined from the mortality 1 week after the administration.

[2] = as above; conditions: mouse, in vivo, mice, in olive oil
Method: as §1

| SMILES | GPT activity ([1]; 1 mg/kg) | Retained BSP ([1]; 1 mg/kg) | GPT activity ([1]; 5 mg/kg) | Retained BSP ([1]; 5 mg/kg) | acute toxicity (in words) (mice) | LD50 at 168 h [2] |
| --- | --- | --- | --- | --- | --- | --- |
| CCOC(=O)C[N+](C)=c1sccs1.[Cl-] [Compound No. 2, N-(1,3-dithiol-2-ylidene)-N-methyl-N-ethoxycarbonylmethylammonium chloride] | 3190 ± 412 Karmen units | 57.4 ± 12.3 µg/mL | 192 ± 84 Karmen units | 17.1 ± 1.4 µg/mL | extremely low toxicity | ≥ 1500 mg/kg |
| CN1CC[N+](=c2sccs2)CC1.[O-][Cl+3]([O-])([O-])[O-] [Compound No. 31, 1-(1,3-dithiol-2-ylidene)-4-methylpiperazinium perchlorate] | 523 ± 111 Karmen units | 20.3 ± 3.4 µg/mL | 148 ± 51 Karmen units | 12.6 ± 0.6 µg/mL | extremely low toxicity | ≥ 1500 mg/kg |
| CCOC(=O)C1CCC[N+]1=c1sccs1.[O-][Cl+3]([O-])([O-])[O-] (stereo not drawn) [Compound No. 41, 1-(1,3-dithiol-2-ylidene)-2-ethoxycarbonyl pyrrolidinium perchlorate] | 405 ± 73 Karmen units | 26.5 ± 3.1 µg/mL | 165 ± 21 Karmen units | 17.9 ± 2.0 µg/mL | extremely low toxicity | ≥ 1500 mg/kg |
| CCOC(=O)C1CCC[N+](=c2sccs2)C1.[I-] (stereo not drawn) [Compound No. 55, 1-(1,3-dithiol-2-ylidene)-3-ethoxycarbonylpiperidinium iodide] | 2981 ± 169 Karmen units | 83.9 ± 14.1 µg/mL | 361 ± 49 Karmen units | 18.3 ± 4.4 µg/mL | extremely low toxicity | ≥ 1500 mg/kg |
| CCOC(=O)C1CC[N+](=c2sccs2)CC1.[O-][Cl+3]([O-])([O-])[O-] (stereo not drawn) [Compound No. 56, 1-(1,3-dithiol-2-ylidene)-4-ethoxycarbonylpiperidinium perchlorate] | 2713 ± 147 Karmen units | 76.6 ± 13.1 µg/mL | 216 ± 32 Karmen units | 21.0 ± 13.4 µg/mL | extremely low toxicity | ≥ 1500 mg/kg |
